Assay results reported in patent US8283353B2, “Fused ring compound and use thereof” (Takeda Pharmaceutical Company Limited, priority 2009, dated 2012).

Biological target: T1, human PPARγ (Homo sapiens, UniProt P37231)
T1 construct: expressed in transfected cells
T1 sequence (P37231 1-477 isoform P37231-2): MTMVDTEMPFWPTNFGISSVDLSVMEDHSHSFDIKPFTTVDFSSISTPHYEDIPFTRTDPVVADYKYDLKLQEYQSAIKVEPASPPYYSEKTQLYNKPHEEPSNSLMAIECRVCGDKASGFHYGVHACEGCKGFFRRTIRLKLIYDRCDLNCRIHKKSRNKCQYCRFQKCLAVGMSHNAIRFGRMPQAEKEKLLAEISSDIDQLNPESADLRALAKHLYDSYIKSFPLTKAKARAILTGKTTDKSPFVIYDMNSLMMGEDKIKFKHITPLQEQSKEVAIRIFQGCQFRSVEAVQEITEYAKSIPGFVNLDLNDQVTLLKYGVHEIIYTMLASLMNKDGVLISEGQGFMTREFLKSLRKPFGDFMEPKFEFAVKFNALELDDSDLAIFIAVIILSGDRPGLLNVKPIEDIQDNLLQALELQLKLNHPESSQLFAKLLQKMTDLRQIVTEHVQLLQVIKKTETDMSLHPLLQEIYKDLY
T1 sequence (P19793 1-462 partner): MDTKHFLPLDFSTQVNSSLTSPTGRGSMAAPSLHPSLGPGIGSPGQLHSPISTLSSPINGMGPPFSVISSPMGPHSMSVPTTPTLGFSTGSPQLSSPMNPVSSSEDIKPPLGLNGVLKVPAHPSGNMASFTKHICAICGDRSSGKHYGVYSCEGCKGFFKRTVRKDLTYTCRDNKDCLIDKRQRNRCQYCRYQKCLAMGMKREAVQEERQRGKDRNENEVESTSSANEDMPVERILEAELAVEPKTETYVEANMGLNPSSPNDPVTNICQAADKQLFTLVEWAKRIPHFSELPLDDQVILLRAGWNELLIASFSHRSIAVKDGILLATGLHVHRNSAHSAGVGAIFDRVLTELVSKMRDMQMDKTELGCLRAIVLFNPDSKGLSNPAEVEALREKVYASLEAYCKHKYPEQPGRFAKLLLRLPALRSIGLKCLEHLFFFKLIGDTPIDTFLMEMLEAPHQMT
Test: PPARγ agonistic activity: luciferase reporter assay in PPARγ:RXRα:4ERPP/CHO-K1 cells
Type: cell-based
Conditions: CHO-K1, test compound 10^−6 M; luciferase activity of control compound X (1 μM) = 100%, non-administration group = 0%
Description: A CHO-K1 cell cultured in a 150 cm^2 cell culture flask [manufactured by Corning Costar Corporation, USA] comprising Ham's F12 medium [manufactured by INVITROGEN, USA] supplemented with 10% fetal bovine serum [manufactured by INVITROGEN, USA] was taken off by treating with 0.5 g/L trypsin-0.2 g/L EDTA (ethylenediamine tetraacetate) [manufactured by Life Technologies, Inc., USA], and then the cell was washed with PBS (Phosphate-buffered saline) [manufactured by INVITROGEN, USA], centrifuged (1000 rpm, 5 minutes) and suspended in PBS. Subsequently, DNA was introduced into the cell under the conditions shown below using GENE PULSER [manufactured by Bio-Rad Laboratories, USA].
Namely, to a cuvette having a 0.4 cm gap were added 8×10^6 cells and 10 μg of plasmid pVgRXR2-hPPARγ obtained in the above-mentioned (4) and 10 μg of reporter plasmid pGL3-4ERPP-TK neo obtained in the above-mentioned (3), which was subjected to electroporation at the voltage of 0.25 kV under the capacitance of […] Subsequently, the cell was transferred into a F12 medium comprising 10% fetal bovine serum and cultured for 24 hours, and then the cell was taken off again and centrifuged. Then, the pellet was suspended in Ham's F12 medium comprising 10% fetal bovine serum supplemented with 500 μg/ml of Geneticin [manufactured by INVITROGEN, USA] and 250 μg/ml of Zeocin [manufactured by INVITROGEN, USA]. The obtained suspension was diluted to the density of 10^4 cells/ml and inoculated in a 96-well plate [manufactured by Corning Costar Corporation, USA], which was cultured in a CO2 gas incubator at 37° C., whereby obtaining a Geneticin- and Zeocin-resistant transformant.
Subsequently, after the transformed cell line thus obtained was cultured in a 24-well plate [manufactured by Corning Costar Corporation, USA], a cell line in which expression of the luciferase was induced, i.e., PPARγ:RXRα:4ERPP/CHO-K1 cell was selected by the addition of 10 μM pioglitazone hydrochloride.
PPARγ:RXRα:4ERPP/CHO-K1 cells obtained in the above-mentioned (5) were cultured in F12 medium [manufactured by INVITROGEN, USA] containing 10% fetal bovine serum [manufactured by MOREGATE, Australia], seeded in a 96 well half-area white plate [manufactured by Corning Coster Corporation, USA] at 5×10^3 cells/well, and cultured in a CO2 incubator at 37° C. overnight.
Then, the medium was removed from the 96 well half-area white plate, hamF12 medium containing 0.1% fatty acid-free bovine serum albumin (BSA) (45 μl) and a test compound (5 μl) were added, and the mixture was cultured in the CO2 incubator at 37° C. for 1 day. After removing the medium, Picagene 7.5 [manufactured by Dai Nippon Inki, Japan] (20 μl) diluted 2-fold with HBSS (HANKS' BALANCED SALT SOLUTION) [manufactured by BIO […], USA] was added, and the mixture was stirred. Using 1420 ARVO Multilabel Counter [manufactured by PerkinElmer, USA], luciferase activity was measured. The percentage (%) was calculated from the luciferase activity of the test compound when the luciferase activity of the control compound (compound X: 5-[3-(4-{[2-(2-furyl)-5-methyl-1,3-oxazol-4-yl]methoxy}-3-methoxyphenyl)propyl]-1,3-oxazolidine-2,4-dione) (1 μM) was taken as 100% and the luciferase activity of the test compound non-administration group was taken as 0%.

Row | Compound | activation at 1 µM
1 | CCCc1c(Cc2ccc(-c3ccccc3-c3noc(=O)[nH]3)cc2)c(=O)n([C@H]2CC[C@H](OCC(C)O)CC2)c2ccnn12 (relative stereo) [Example 419, 4-[trans-4-(2-hydroxypropoxy)cyclohexyl]-6-{[2′-(5-oxo-4,5-dihydro-1,2,4-oxadiazol-3-yl)biphenyl-4-yl]methyl}-7-propylpyrazolo[1,5-a]pyrimidin-5(4H)-one] | 21%
2 | CCCc1c(Cc2ccc(-c3ccccc3-c3noc(=O)[nH]3)cc2)c(=O)n([C@H]2CC[C@H](OCC(C)O)CC2)c2ccnn12 (single isomer, unassigned) [Example 440, 4-[trans-4-(2-hydroxypropoxy)cyclohexyl]-6-{[2′-(5-oxo-4,5-dihydro-1,2,4-oxadiazol-3-yl)biphenyl-4-yl]methyl}-7-propylpyrazolo[1,5-a]pyrimidin-5(4H)-one (optically active form, retention time: short)] | 16%
3 | CCCc1c(Cc2ccc(-c3ccccc3-c3noc(=O)[nH]3)cc2F)c(=O)n(C2CCOC2)c2nc(C)nn12 (stereo not shown) [Example 120, 6-{[3-fluoro-2′-(5-oxo-4,5-dihydro-1,2,4-oxadiazol-3-yl)biphenyl-4-yl]methyl}-2-methyl-7-propyl-4-(tetrahydrofuran-3-yl)[1,2,4]triazolo[1,5-a]pyrimidin-5(4H)-one] | 18%
4 | CCCc1c(Cc2ccc(-c3ccccc3-c3noc(=O)[nH]3)cc2)c(=O)n([C@H]2CC[C@@H](OCC(C)(C)O)CC2)c2ncnn12 [Example 158, 4-[cis-4-(2-hydroxy-2-methylpropoxy)cyclohexyl]-6-{[2′-(5-oxo-4,5-dihydro-1,2,4-oxadiazol-3-yl)biphenyl-4-yl]methyl}-7-propyl[1,2,4]triazolo[1,5-a]pyrimidin-5(4H)-one] | 37%
5 | CCCc1c(Cc2ccc(-c3ccccc3-c3noc(=O)[nH]3)cc2)c(=O)n([C@H]2CC[C@H](OCC(C)(C)O)CC2)c2ncnn12 [Example 381, 4-[trans-4-(2-hydroxy-2-methylpropoxy)cyclohexyl]-6-{[2′-(5-oxo-4,5-dihydro-1,2,4-oxadiazol-3-yl)biphenyl-4-yl]methyl}-7-propyl[1,2,4]triazolo[1,5-a]pyrimidin-5(4H)-one] | 32%
6 | CCCc1c(Cc2ccc(-c3ccccc3-c3noc(=O)[nH]3)cc2F)c(=O)n([C@H]2C[C@H](OCC(C)(C)O)C2)c2nc(C)nn12 [Example 403, 6-{[3-fluoro-2′-(5-oxo-4,5-dihydro-1,2,4-oxadiazol-3-yl)biphenyl-4-yl]methyl}-4-[trans-3-(2-hydroxy-2-methylpropoxy)cyclobutyl]-2-methyl-7-propyl[1,2,4]triazolo[1,5-a]pyrimidin-5(4H)-one] | 17%
7 | CCCc1c(Cc2ccc(-c3ccccc3-c3noc(=O)[nH]3)cc2F)c(=O)n([C@H]2C[C@@H](OCC(C)(C)O)C2)c2nc(C)nn12 [Example 404, 6-{[3-fluoro-2′-(5-oxo-4,5-dihydro-1,2,4-oxadiazol-3-yl)biphenyl-4-yl]methyl}-4-[cis-3-(2-hydroxy-2-methylpropoxy)cyclobutyl]-2-methyl-7-propyl[1,2,4]triazolo[1,5-a]pyrimidin-5(4H)-one] | 28%
8 | CCCc1c(Cc2ccc(-c3ccccc3-c3noc(=O)[nH]3)cc2)c(=O)n([C@H]2CC[C@H](OCC(C)(C)O)CC2)c2ccnn12 [Example 413, 4-[trans-4-(2-Hydroxy-2-methylpropoxy)cyclohexyl]-6-{[2′-(5-oxo-4,5-dihydro-1,2,4-oxadiazol-3-yl)biphenyl-4-yl]methyl}-7-propylpyrazolo[1,5-a]pyrimidin-5(4H)-one] | 25%

Biological target: T2, human AT1 receptor (Homo sapiens, UniProt P30556)
T2 construct: expressed in transfected cells; membrane fraction
T2 sequence (P30556 1-359): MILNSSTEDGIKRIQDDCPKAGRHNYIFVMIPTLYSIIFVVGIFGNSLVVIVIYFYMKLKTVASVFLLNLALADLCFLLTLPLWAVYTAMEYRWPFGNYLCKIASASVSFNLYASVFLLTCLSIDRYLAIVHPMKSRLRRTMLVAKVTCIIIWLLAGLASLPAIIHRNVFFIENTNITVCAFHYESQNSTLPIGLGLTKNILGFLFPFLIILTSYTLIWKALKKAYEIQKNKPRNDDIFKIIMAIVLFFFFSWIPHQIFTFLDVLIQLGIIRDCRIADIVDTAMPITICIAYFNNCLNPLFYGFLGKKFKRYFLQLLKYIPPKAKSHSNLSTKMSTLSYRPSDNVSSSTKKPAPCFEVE
Test: AT1 receptor antagonistic activity: [125I]-angiotensin II binding assay on human AT1 receptor-expressing CHO-K1 cellular membrane fraction
Conditions: 22.5 pM [125I]-angiotensin II, 1 hr room temperature
Protocol: CHO-K1 cell (RIKEN, Japan) capable of stable expression of human AT1 receptor was cultured, recovered, suspended in homogenize buffer (10 mM NaHCO3 (pH 7.4), 5 mM EDTA, 1× Complete EDTA free) [manufactured by Roche, Switzerland], and homogenized. The homogenate was centrifuged at low-speed (900×g, 10 min, 4° C.), and the supernatant was recovered and ultracentrifuged (90,000×g, 1 hr, 4° C.). The supernatant was discarded, and the pellets were resuspended in suspension buffer (50 mM Tris (pH 7.4), 1 mM EDTA, 1× Complete EDTA free).
(9 μg) in the presence of AT1 membrane and test compound in 100 μl, (total reaction volume) of reaction buffer (50 mM Tris (pH 7.4), 10 mM MgCl2 supplemented or not supplemented with 0.3 mg/mL fatty acid-free bovine serum albumin [manufactured by Wako Pure Chemical Industries, Ltd., Japan]). The reaction mixture was incubated in 96 well polypropylene plate for 1 hr at room temperature, and the reaction was quenched by rapid filtration (96 well cell harvester) through a GF/C filter treated with wash buffer (50 mM Tris (pH 7.4)). Subsequently, the filter was washed 5 times with 0.3 mL of ice-cooled wash buffer. […] Total binding was measured in the presence of 1% DMSO and nonspecific binding was measured in the presence of […] Candesartan.

Row | Compound | IC50
9 | CCCc1c(Cc2ccc(-c3ccccc3-c3noc(=O)[nH]3)cc2)c(=O)n([C@H]2CC[C@H](OC(C)C(C)(C)O)CC2)c2ncnn12 (single isomer, unassigned) [Example 318, 4-[trans-4-(2-hydroxy-1,2-dimethylpropoxy)cyclohexyl]-6-{[2′-(5-oxo-4,5-dihydro-1,2,4-oxadiazol-3-yl)biphenyl-4-yl]methyl}-7-propyl[1,2,4]triazolo[1,5-a]pyrimidin-5(4H)-one (retention time: short)] | 1.8 nM
10 | CCCCc1c(Cc2ccc(-c3ccccc3-c3noc(=O)[nH]3)cc2)c(=O)n(C2CCOC(C)C2)c2ncnn12 (stereo not shown) [Example 160, 7-butyl-4-(2-methyltetrahydro-2H-pyran-4-yl)-6-{[2′-(5-oxo-4,5-dihydro-1,2,4-oxadiazol-3-yl)biphenyl-4-yl]methyl}[1,2,4]triazolo[1,5-a]pyrimidin-5(4H)-one] | 1.3 nM
